Data: PubChem BioAssay (NCI)
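Protocol summary: plate cells (96-well), add compound at 5 concentrations, incubate 48 h, interpolate endpoints linearly. Definition used: TGI = concentration required for complete inhibition of growth.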

Experiments:
Assay in all cases: DTP human tumour cell line panel, 48 h
OVCAR-3 ovarian = system: OVCAR-3 ovarian
CCRF-CEM leukemia = system: CCRF-CEM leukemia
NCI-H460 lung = system: NCI-H460 lung
UO-31 renal = system: UO-31 renal
HCC-2998 colon = system: HCC-2998 colon
OVCAR-4 ovarian = system: OVCAR-4 ovarian
OVCAR-8 ovarian = system: OVCAR-8 ovarian
BT-549 breast = system: BT-549 breast
NCI/ADR-RES ovarian = system: NCI/ADR-RES ovarian
NCI-H23 lung = system: NCI-H23 lung
U251 CNS = system: U251 CNS
SR leukemia = system: SR leukemia
HCT-15 colon = system: HCT-15 colon
UACC-257 melanoma = system: UACC-257 melanoma
786-0 renal = system: 786-0 renal
EKVX NSCLC = system: EKVX NSCLC
PC-3 prostate = system: PC-3 prostate
MOLT-4 leukemia = system: MOLT-4 leukemia
DU-145 prostate = system: DU-145 prostate
SNB-19 CNS = system: SNB-19 CNS
M14 melanoma = system: M14 melanoma
SK-MEL-28 melanoma = system: SK-MEL-28 melanoma
MALME-3M melanoma = system: MALME-3M melanoma
SNB-75 CNS = system: SNB-75 CNS
KM12 colon = system: KM12 colon
MDA-MB-231 breast = system: MDA-MB-231 breast
OVCAR-5 ovarian = system: OVCAR-5 ovarian
RPMI-8226 leukemia = system: RPMI-8226 leukemia
CAKI-1 renal = system: CAKI-1 renal
A549 NSCLC = system: A549 NSCLC
ACHN renal = system: ACHN renal
SF-268 CNS = system: SF-268 CNS
K-562 leukemia = system: K-562 leukemia
SK-MEL-2 melanoma = system: SK-MEL-2 melanoma
HOP-62 NSCLC = system: HOP-62 NSCLC
MDA-MB-435 = system: MDA-MB-435
HT29 colon = system: HT29 colon
RXF 393 renal = system: RXF 393 renal
TK-10 renal = system: TK-10 renal
SK-MEL-5 melanoma = system: SK-MEL-5 melanoma
COLO 205 colon = system: COLO 205 colon
HL-60(TB) leukemia = system: HL-60(TB) leukemia
MCF7 breast = system: MCF7 breast
SN12C renal = system: SN12C renal
SF-295 CNS = system: SF-295 CNS
HCT-116 colon = system: HCT-116 colon
LOX IMVI melanoma = system: LOX IMVI melanoma
SW-620 colon = system: SW-620 colon
SF-539 CNS = system: SF-539 CNS
IGROV1 ovarian = system: IGROV1 ovarian
HS 578T breast = system: HS 578T breast
SK-OV-3 ovarian = system: SK-OV-3 ovarian
UACC-62 melanoma = system: UACC-62 melanoma
A498 renal = system: A498 renal
HOP-92 NSCLC = system: HOP-92 NSCLC

What does the source list for `O=c1[nH]nc(NCCc2ccccc2)c2nnn(Cc3ccccc3)c12`?
TGI (OVCAR-3 ovarian): > 100 µM; TGI (CCRF-CEM leukemia): > 100 µM; TGI (NCI-H460 lung): > 100 µM; TGI (UO-31 renal): > 100 µM; TGI (HCC-2998 colon): > 100 µM; TGI (OVCAR-4 ovarian): > 100 µM; TGI (OVCAR-8 ovarian): > 100 µM; TGI (BT-549 breast): > 100 µM; TGI (NCI/ADR-RES ovarian): > 100 µM; TGI (NCI-H23 lung): > 100 µM; TGI (U251 CNS): > 100 µM; TGI (SR leukemia): > 100 µM; TGI (HCT-15 colon): > 100 µM; TGI (UACC-257 melanoma): > 100 µM; TGI (786-0 renal): > 100 µM; TGI (EKVX NSCLC): > 100 µM; TGI (PC-3 prostate): > 100 µM; TGI (MOLT-4 leukemia): > 100 µM; TGI (DU-145 prostate): > 100 µM; TGI (SNB-19 CNS): > 100 µM; TGI (M14 melanoma): > 100 µM; TGI (SK-MEL-28 melanoma): > 100 µM; TGI (MALME-3M melanoma): > 100 µM; TGI (SNB-75 CNS): > 100 µM; TGI (KM12 colon): > 100 µM; TGI (MDA-MB-231 breast): > 100 µM; TGI (OVCAR-5 ovarian): > 100 µM; TGI (RPMI-8226 leukemia): > 100 µM; TGI (CAKI-1 renal): > 100 µM; TGI (A549 NSCLC): > 100 µM; TGI (ACHN renal): > 100 µM; TGI (SF-268 CNS): > 100 µM; TGI (K-562 leukemia): > 100 µM; TGI (SK-MEL-2 melanoma): > 100 µM; TGI (HOP-62 NSCLC): > 100 µM; TGI (MDA-MB-435): > 100 µM; TGI (HT29 colon): > 100 µM; TGI (RXF 393 renal): > 100 µM; TGI (TK-10 renal): > 100 µM; TGI (SK-MEL-5 melanoma): > 100 µM; TGI (COLO 205 colon): > 100 µM; TGI (HL-60(TB) leukemia): > 100 µM; TGI (MCF7 breast): > 100 µM; TGI (SN12C renal): > 100 µM; TGI (SF-295 CNS): > 100 µM; TGI (HCT-116 colon): > 100 µM; TGI (LOX IMVI melanoma): > 100 µM

`N=c1c2ccccc2nc2oc3ccccc3n12` was tested. Which TGI (CCRF-CEM leukemia) did it give?
The TGI was greater than 100 µM.

What about the TGI (UO-31 renal) of the same molecule?
Its TGI is greater than 100 µM.

What about the TGI (HCC-2998 colon) of the same molecule?
Its TGI is greater than 100 µM.

What about the TGI (OVCAR-4 ovarian) of the same molecule?
The TGI was 61.4 µM.

And the TGI (SW-620 colon)?
Its TGI is greater than 100 µM.

What about the TGI (OVCAR-8 ovarian) of the same molecule?
Its TGI is greater than 100 µM.

What about the TGI (BT-549 breast) of the same molecule?
Its TGI is greater than 100 µM.

And the TGI (NCI/ADR-RES ovarian)?
The TGI was greater than 100 µM.

And the TGI (NCI-H23 lung)?
Its TGI is greater than 100 µM.

What about the TGI (SF-539 CNS) of the same molecule?
The TGI was greater than 100 µM.

And the TGI (HCT-15 colon)?
The TGI was greater than 100 µM.

What about the TGI (UACC-257 melanoma) of the same molecule?
Its TGI is greater than 100 µM.

What about the TGI (EKVX NSCLC) of the same molecule?
Its TGI is 29.9 µM.

What about the TGI (IGROV1 ovarian) of the same molecule?
The TGI was greater than 100 µM.

And the TGI (PC-3 prostate)?
The TGI was greater than 100 µM.

What about the TGI (HS 578T breast) of the same molecule?
Its TGI is 60.3 µM.

What about the TGI (SNB-19 CNS) of the same molecule?
The TGI was greater than 100 µM.

And the TGI (MALME-3M melanoma)?
The TGI was greater than 100 µM.

What about the TGI (OVCAR-5 ovarian) of the same molecule?
The TGI was greater than 100 µM.

What about the TGI (SK-OV-3 ovarian) of the same molecule?
The TGI was greater than 100 µM.

What about the TGI (RPMI-8226 leukemia) of the same molecule?
Its TGI is greater than 100 µM.

What about the TGI (CAKI-1 renal) of the same molecule?
The TGI was greater than 100 µM.

And the TGI (A549 NSCLC)?
The TGI was greater than 100 µM.

And the TGI (ACHN renal)?
Its TGI is greater than 100 µM.

What about the TGI (UACC-62 melanoma) of the same molecule?
The TGI was greater than 100 µM.

What about the TGI (SF-268 CNS) of the same molecule?
The TGI was 28 µM.

And the TGI (K-562 leukemia)?
Its TGI is greater than 100 µM.

And the TGI (SK-MEL-2 melanoma)?
The TGI was greater than 100 µM.

And the TGI (HOP-62 NSCLC)?
The TGI was 88.2 µM.

What about the TGI (MDA-MB-435) of the same molecule?
The TGI was greater than 100 µM.

What about the TGI (A498 renal) of the same molecule?
The TGI was greater than 100 µM.

And the TGI (HT29 colon)?
Its TGI is greater than 100 µM.

And the TGI (TK-10 renal)?
The TGI was 87.3 µM.

What about the TGI (HOP-92 NSCLC) of the same molecule?
Its TGI is 80.6 µM.

And the TGI (SK-MEL-5 melanoma)?
The TGI was 69.5 µM.

And the TGI (COLO 205 colon)?
Its TGI is greater than 100 µM.

What about the TGI (HL-60(TB) leukemia) of the same molecule?
The TGI was greater than 100 µM.

What about the TGI (MCF7 breast) of the same molecule?
Its TGI is greater than 100 µM.

What about the TGI (SN12C renal) of the same molecule?
Its TGI is greater than 100 µM.

What about the TGI (SF-295 CNS) of the same molecule?
The TGI was greater than 100 µM.

What about the TGI (HCT-116 colon) of the same molecule?
The TGI was greater than 100 µM.

What about the TGI (LOX IMVI melanoma) of the same molecule?
The TGI was greater than 100 µM.
